Measured values: patent US20100086929A1, “DETECTION OF ANALYTES” (DO-COOP TECHNOLOGIES LTD., priority 2007, published 2010)
Counter-ions that a name gives are not always drawn. Where no end group is shown, it is not given here.

Key:
[1] = Solubilizing CD-Dau, Daunorubicine and t-boc in Neowater (Example 7); type: physicochemical
Method: Required concentration: 3 mg/ml Neowater.
Properties: The material dissolves in EtOH.
5 different glass vials were prepared: • 1. 5 mg CD-Dau+1.2 ml Neowater™. • 2. 1.8 mg CD-Dau+600 μl acetone. • 3. 1.8 mg CD-Dau+150 μl acetone+450 μl Neowater™ (25% acetone). • 4. 1.8 mg CD-Dau+600 μl 10% *PEG (Polyethylene Glycol). • 5. 1.8 mg CD-Dau+600 μl acetone+600 μl Neowater™. • The samples were vortexed and spectrophotometer measurements were performed on vials #1, 4 and 5 • The vials were left opened in order to evaporate the acetone (vials #2, 3, and 5).
As soon as the acetone was evaporated from solutions #2, 4 and 5, the material sedimented slightly and an additional amount of acetone was added to the vials. This protocol enables the dissolving of the material in the presence of acetone and Neowater™ while at the same time enabling the subsequent evaporation of acetone from the solution (this procedure was performed twice). Following the second cycle the liquid phase was removed from the vile and additional amount of acetone was added to the sediment material. Once the sediment material dissolved it was merged with the liquid phase removed previously. The merged solution was evaporated again. […] Later 1.2 ml of 10% PEG+Neowater™ were added also and after some time the acetone was evaporated from the solution. Finalizing these procedures, the vials were merged to one vial (total volume of 3 ml). On top of this final volume 3 ml of acetone were added in order to dissolve the material and to receive a lucid liquefied solution, which was then evaporated again at 50° C. The solution didn't reach equilibrium due to the fact that once reaching such status the solution would have been separated. By avoiding equilibrium, the material hydration status was maintained and kept as liquid. After the solvent evaporated the material was transferred to a clean vial and was closed under vacuum conditions.
2 mg Daunorubicine+1 ml Neowater™ was prepared in one vial and 2 mg of Daunorubicine+1 ml RO was prepared in a second vial.
1.14 ml of EtOH was added to one glass vial containing 18.5 mg of t-boc (an oily material). This was then divided into two vials and 1.74 ml Neowater™ or RO water was added to the vials such that the solution comprised 25% EtOH. Following spectrophotometer measurements, the solvent was evaporated from the solution and Neowater™ was added to both vials to a final volume of 2.31 ml in each vial. The solutions in the two vials were merged to one clean vial and packaged for shipment under vacuum conditions.

[2] = cited from earlier work
[3] = Solubilization of retinol in Neowater, absorbance and filtration (Example 10); type: physicochemical
Method: Retinol (vitamin A) was purchased from Sigma (Fluka, 99% HPLC). Retinol was solubilized in Neowater™ under the following conditions. 1% retinol (0.01 gr in 1 ml) in EtOH and Neowater™ 0.5% retinol (0.005 gr in 1 ml) in EtOH and Neowater™ 0.5% retinol (0.125 gr in 25 ml) in EtOH and Neowater™ 0.25% retinol (0.0625 gr in 25 ml) in EtOH and Neowater™. […] Absorbance spectrum of retinol in EtOH: Retinol solutions were made in absolute EtOH, with different retinol concentrations, in order to create a calibration graph; absorbance spectrum was detected in a spectrophotometer. […] Actual concentration of retinol is also unknown since some oil drops are not dissolved in the water. […] The solutions were filtrated in […] filter.

[4] = Solubilization of taxol in DMSO or Neowater with 17% EtOH (Example 13); type: physicochemical
Method: The following experiments were performed in order to ascertain whether the carrier composition comprising nanostructures was capable of dissolving material taxol (Paclitaxel) at a final concentration of 0.5 mM.
Solubilization: 0.5 mM Taxol solution was prepared (0.0017 gr in 4 ml) in either DMSO or Neowater™ with 17% EtOH. Absorbance was detected with a spectrophotometer.

[5] = Taxol in Neowater by slow solvent exchange, HPLC after storage (Example 16); type: physicochemical; settings: taxol dispersed in Neowater, 6 month storage at −20° C.
Method: Solubilization: 0.5 mM Taxol solution was prepared (0.0017 gr in 4 ml). […] At the end of the procedure, less than 40% ethanol remained in the solution, leading to 0.08% of ethanol in the final administered concentration. The solution was sterilized using a 0.2 μm filter. Taxol was separately prepared in DMSO (0.5 mM). Both solutions were kept at −20° C. Absorbance was detected with a spectrophotometer.

[6] = Solubilization of peptides in Neowater (Example 9); type: physicochemical; settings: Neowater at 0.5 mM
Method: In addition, the effect of the peptides on Skov-3 cells was measured in order to ascertain whether the carrier composition comprising nanostructures influenced the cytotoxic activity of the peptides.
Solubilization: All seven peptides (Peptide X, X-5FU, NLS-E, Palm-PFPSYK (CMFU), […]-NH2, NLS-p2-LHRH, and F-LH-RH-palm kGFPSK) were dissolved in Neowater™ at 0.5 mM. Spectrophotometric measurements were taken.

COc1cccc2c1C(=O)c1c(O)c3c(c(O)c1C2=O)C[C@@](O)(C(C)=O)C[C@@H]3O[C@H]1C[C@H](N)[C@H](O)[C@H](C)O1 [Daunorubicine, Cerubidine hydrochloride]
dissolving ([1]; 2 mg in 1 ml Neowater): dissolves without difficulty | dissolving ([1]; 2 mg in 1 ml RO): dissolves without difficulty | solubility in water [2]: known not to dissolve in water

CC1=C(/C=C/C(C)=C/C=C/C(C)=C/CO)C(C)(C)CCC1 [Retinol]
retinol concentration in EtOH with similar absorbance pattern ([3]; 0.25% retinol in Neowater): ~0.03125% | retinol in the solutions following filtration ([3]; 0.25% retinol in Neowater, 1.5% EtOH, 0.44 and 0.2 filter): less than 0.03125% | retinol concentration in EtOH with similar absorbance pattern ([3]; 0.5% retinol in Neowater): ~0.125%

CC(=O)O[C@H]1C(=O)[C@@]2(C)[C@H]([C@H](OC(=O)c3ccccc3)[C@]3(O)C[C@H](OC(=O)[C@H](O)[C@@H](NC(=O)c4ccccc4)c4ccccc4)C(C)=C1C3(C)C)[C@]1(OC(C)=O)CO[C@@H]1C[C@@H]2O [Taxol, Paclitaxel]
dissolving ([4]; 0.5 mM in DMSO): dissolved | dissolving ([4]; 0.5 mM in Neowater with 17% EtOH): dissolved | structural changes on storage (HPLC) [5]: no structural changes

Daidzein—daunomycin conjugate [CD-Dau]
dissolving ([1]; Vial #1, 100% Neowater, 5 mg in 1.2 ml): sedimented after a few hours | dissolving ([1]; Vial #2, 100% acetone, 1.8 mg in 600 μl): 48 hours later the material sedimented partially | dissolving ([1]; Vial #3, 25% acetone in Neowater): didn't dissolve very well | dissolving ([1]; Vial #4, 10% PEG+Neowater): dissolved better than the CD-Dau in vial #1 | dissolving ([1]; Vial #5, acetone then Neowater, acetone evaporated): as the acetone evaporated the material partially sediment to the bottom of the vial | solubility in water [2]: known not to dissolve in water

F-LH-RH-palm kGFPSK
dissolving [6]: dissolved

PFPSYKLRPG-NH2
dissolving [6]: dissolved

Palm-PFPSYK (CMFU)
dissolving [6]: dissolved
